In data set [1] the test system is collagenase. The following applies: in words; cited from earlier work.
Data set [2] deals with T1, human skin fibroblast collagenase (Homo sapiens, UniProt P03956).
T1 construct: endogenous in cells; host or cells: human skin fibroblasts
T1 sequence (P03956 100-469): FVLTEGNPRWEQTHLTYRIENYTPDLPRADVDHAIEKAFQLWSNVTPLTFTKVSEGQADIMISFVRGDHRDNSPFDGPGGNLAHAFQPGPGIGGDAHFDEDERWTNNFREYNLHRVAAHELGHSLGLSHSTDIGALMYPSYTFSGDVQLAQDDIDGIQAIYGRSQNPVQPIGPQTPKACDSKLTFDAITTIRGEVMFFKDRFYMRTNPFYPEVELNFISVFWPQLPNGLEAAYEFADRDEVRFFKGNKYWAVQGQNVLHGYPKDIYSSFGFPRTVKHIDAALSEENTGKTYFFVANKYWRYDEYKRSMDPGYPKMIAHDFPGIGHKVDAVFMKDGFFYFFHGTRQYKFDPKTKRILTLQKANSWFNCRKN
The experiment in a line: Collagenase Assay, Test Code 006 (degradation of 14C-labeled native collagen fibrils). The class given is biochemical. The settings on record: 30 μg./ml., 37° C., 16 hours; based on the 0% value for the enzyme control. The protocol: An active inhibitor would inhibit the degradation of the collagen fibril; (iii) Leukocyte Neutral Proteases Inhibitor Assay--This test measures the ability of neutral proteases derived from human leukocytes to degrade radiolabeled proteoglycans entrapped in polyacrylamide beads.
(i) Collagenase Assay--Test Code 006
Collagenase assays were performed by a modification of the method of Harper, et al., Biochem., 10, 3035 (1971). In a typical assay (total volume of 0.45 ml.), 100 μl. of the activated enzyme was added to the ^14 C-labeled collagen fibrils (250 μl.) followed by 100 μl. of 50 mM cacodylate, pH 7.4, containing 5 mM calcium chloride. After incubation at 37° C. for 16 hours, the tubes were centrifuged in a Beckman microfuge for five minutes at full speed. An aliquot (200 μl.) of the supernatant, representing collagenase digestion products of the fibril, was assayed for radioactivity. The effect of the test compound on collagen degradation by collagenase was examined as follows:
The test compound (in distilled water) was added at a test concentration of 30 μg./ml. to the assay tubes containing active collagenase (total volume 450 μl.) and after 16 hours the amount of radioactivity in the supernatant was determined. Appropriate blanks and trypsin controls were run in parallel.
The activities are expressed as % inhibition (lowering) of collagenase activity, i.e. based on the 0% value for the enzyme control.

Data set [3] concerns corneal ulcerations. The settings on record: directly applied to the eye, alkali burned rabbit; cited from earlier work.
In data set [4] the test system is collagenase. The settings on record: in words; collagenase or a proteinase contaminant in the collagenase preparation; cited from earlier work.
For data set [5], the system named is corneal ulceration. The settings on record: human; cited from earlier work.
For data set [6] the following is noted: compared with cysteine; cited from earlier work.

In the case of `c1cnc2c(c1)ccc1cccnc12` [1,10-phenanthroline], in data set [1], the collagenase inhibition result is on record as “collagenase inhibitors”. The molecule `CCOC(=O)c1cc(O)c2cc(NC(=O)c3cccc(NC(=O)Nc4cccc(C(=O)Nc5ccc6cc(C(=O)OCC)cc(O)c6c5)c4)c3)ccc2c1` [6,6'-[Ureylenebis(m-phenylenecarbonylimino)]bis[4-hydroxy-2-naphthoic acid] diethyl ester] gave an inhibition at 30 µg/mL in data set [2] of 57%.

On to `O=C(Nc1cccc(C(=O)Nc2ccc3cc(C(=O)O)cc(O)c3c2)c1)Nc1cccc(C(=O)Nc2ccc3cc(C(=O)O)cc(O)c3c2)c1` [6,6'-[Ureylenebis(m-phenylenecarbonylimino)]bis[4-hydroxy-2-naphthoic acid]], for which, in data set [2], 30 µg/mL produced 92% inhibition.

Molecule `CCOC(=O)c1cc(OC(C)=O)c2cc(NC(=O)c3cccc(NC(=O)Nc4cccc(C(=O)Nc5ccc6cc(C(=O)OCC)cc(OC(C)=O)c6c5)c4)c3)ccc2c1` [6,6'-[Ureylenebis(m-phenylenecarbonylimino)]bis[4-hydroxy-2-naphthoic acid]diethyl ester diacetate] yielded an inhibition at 30 µg/mL in data set [2] of 7%. Regarding `O=C([O-])CN(CCN(CC(=O)[O-])CC(=O)[O-])CC(=O)[O-].[Ca+2].[Ca+2]` [Calcium ethylenediaminetetraacetate], the frequency of ulceration entry in data set [3] is listed as “reduce the frequency of ulceration”.

In the case of `Cc1ccc(C(=O)Nc2ccc(S(=O)(=O)O)c3cc(S(=O)(=O)O)cc(S(=O)(=O)O)c23)cc1NC(=O)c1cccc(NC(=O)Nc2cccc(C(=O)Nc3cc(C(=O)Nc4ccc(S(=O)(=O)O)c5cc(S(=O)(=O)O)cc(S(=O)(=O)O)c45)ccc3C)c2)c1` [Suramin], in data set [4], the “inhibiting the activity of collagenase” value is “not inhibiting the action of collagenase”. With `CC(=O)N[C@@H](CS)C(=O)O` [acetylcysteine], in data set [5], the “treatment of acute and chronic corneal ulceration” value is listed as “effective”. Moreover, the stability entry in data set [6] is “greater stability”. In addition, in data set [3], the frequency of ulceration result is reported as “reduce the frequency of ulceration”.

With `N[C@@H](CS)C(=O)O` [cysteine], in data set [5], the “treatment of acute and chronic corneal ulceration” value is listed as “effective”. Also, the collagenase inhibition result in data set [1] is “collagenase inhibitors”. Regarding `O[C@@H](CS)[C@@H](O)CS` [dithiothretol], in data set [1], the collagenase inhibition result is given as “collagenase inhibitors”. For the molecule `Cc1cc(-c2ccc(/N=N/c3c(S(=O)(=O)O)cc4cc(S(=O)(=O)O)cc(N)c4c3O)c(C)c2)ccc1/N=N/c1c(S(=O)(=O)O)cc2cc(S(=O)(=O)O)cc(N)c2c1O` [trypan blue], the “inhibiting the activity of collagenase” value in data set [4] is “inhibiting the activity of collagenase”. In the case of sodium auriothiomalate, the collagenase inhibition result in data set [1] is recorded as “collagenase inhibitors”. Take “α2 -macroglobulin: Naturally occurring collagenase inhibitors include the serum components α2 -macroglobulin and β1-anticollagenase”: the collagenase inhibition result in data set [1] is recorded as “collagenase inhibitors”.

These data come from US4275076A, “Substituted naphthoic acids” (American Cyanamid Company, priority 1980, dated 1981).
